Data on five compounds can be found in paper PMC8959960, “Inhibition of Aldose Reductase by Novel Phytocompounds: A Heuristic Approach to Treating Diabetic Retinopathy” (Evidence-based Complementary and Alternative Medicine : eCAM, 2022).

The target of series [1] is T1, human lens ALR2 (Homo sapiens, UniProt P15121).
T1 construct: Crude ALR2 enzyme extract was prepared by homogenizing from 100 mg of diabetic and nondiabetic human lenses; from tissue; host or cells: human lens (Rotary Aravind International Eye Bank)
The series is described as follows: ALR2 inhibition in human lens samples (NADPH decrease at 340 nm). The class given is biochemical. The settings on record: crude ALR2 from diabetic human lens, DL-glyceraldehyde substrate, 37°C, pH 7.0; means ± SD, n = 3. As to the method: Hayman and Kinoshita method of crude ALR2 enzyme preparation was followed. Five diabetic and nondiabetic human lenses, aged 58 to 65 years, were obtained from the Rotary Aravind International Eye Bank, Aravind Eye Hospital, Madurai. […] The nondiabetic human lens was used as the control. The lens homogenate was centrifuged at 10,000 rpm for 30 minutes, and the resulting crude ALR2 enzyme preparation was used for analysis.
The 300 μl reaction mixture consisted of 100 mM sodium phosphate buffer adjusted to pH 7.0, 0.2 mM Li2SO4, 5 mM 2-mercaptoethanol, 0.15 mM NADPH, and 100 μg crude enzyme preparation, and the substrate DL-glyceraldehyde was added to initiate the reaction. ALR2 activity was assayed spectrophotometrically by measuring the decrease in the absorption of NADPH at 340 nm per unit time at 37°C and pH 7.0.
The percentage inhibition of ALR2 was calculated using the following formula:(3) % inhibition=ΔAbsorbance of sample/min−ΔAbsorbance blank/min/ΔAbsorbance of control/min−ΔAbsorbance blank/min×100.

In series [2] the target is T2, ALR2 in ARPE-19 cells (Homo sapiens, UniProt P15121).
T2 construct: The cell lysate was collected for analysis; endogenous in cells; host or cells: ARPE-19
Kind of series: Inhibition of ALR2 in ARPE-19 cells. The class given is cell-based. Particulars: normoglycemic (5 mM glucose) ARPE-19 cells, 24 hr, each compound at its human lens IC50 concentration. As to the method: The cells were shifted to DMEM-low glucose with 10% FBS, 12 hr before the experiment. The cells were washed with PBS and incubated in FBS-free medium and 5 mM/25 mM (normoglycemic condition/hyperglycemic condition) glucose, for 24 hr, with or without the drug. Following the drug treatment, the cells were washed with ice cold PBS, trypsinized, and counted. Cells were resuspended in ALR assay buffer, homogenized for 30 seconds, and centrifuged at 10000 rpm for 30 minutes. The cell lysate was collected for analysis.
ALR2 inhibition protocol by Hayman and Kinoshita was followed.

For series [3], the system named is ARPE-19 cells. The series is described as follows: MTT cell toxicity assay. The settings on record: 24 hr treatment. Type of series: cell-based, human. The method, then: The cell toxicity of the shortlisted ARIs was assessed using MTT assay kit (in vitro toxicological assay kit, Sigma, USA). ARPE-19 cells were grown to confluence in DMEM/F12 medium with 10% FBS, harvested by trypsinization, and plated at 1 × 10^4 cells per well in a 96-well plate. The medium was replaced with serum-free medium without FBS for 3 hr before the drug treatment. Following serum starvation, ARPE-19 cells were treated with different concentrations of the identified compounds. […] The cells were treated with the lead compounds for 24 hr to determine the cytotoxicity of the compounds. After incubation, the cells were treated with 20 μl of 5 mg/ml MTT and incubated for 3 hr at 37°C to determine the cell toxicity. The viable cells converted MTT into formazan crystals which were dissolved using solubilization solution (200 μl) and measured spectrophotometrically at 570 nm with subtraction of the reference wavelength, 650 nm, to eliminate the possibility of variations in the plate and the media present, using SpectraMax M3 multiplate reader (Molecular Devices, California, USA).

In series [4] the test system is ALR2. Particulars: high glucose condition; cited from earlier work.

Turning to `COc1cc(O)c2c(=O)cc(-c3ccccc3)oc2c1OC` [7-O-Methylwogonin], the midpoint of inhibition in series [1], the IC50, lay at 108 nM. The “ALR2 inhibition (%)” value in series [2] was found to be 98%.
Consider `O=C(OCC1=C[C@@H](O)[C@@H]2C=CO[C@@H](O[C@@H]3O[C@H](CO)[C@@H](O)[C@H](O)[C@H]3O)[C@H]12)c1ccc(O)cc1` [Agnuside], for which half-maximal inhibition in series [1] (IC50) was put at 22.4 nM. Moreover, in series [2], the “ALR2 inhibition (%)” value turned out to be 100%. Also, in series [3], the “concentration below which no toxicity was shown” value is listed as “below 5 μM”.
Turning to `COc1cc2oc(-c3ccc(O)cc3)c(O[C@@H]3O[C@H](CO)[C@H](O)[C@H](O)[C@H]3O)c(=O)c2c(O)c1OC` [Eupalitin-3-O-galactoside], in series [1], the 50% inhibitory concentration (IC50) worked out at 27.3 nM. In addition, the “ALR2 inhibition (%)” value in series [2] was 65%.
For the compound `COc1cc(C(=O)O[C@H]2[C@@H]3C=CO[C@@H](O[C@@H]4O[C@H](CO)[C@@H](O)[C@H](O)[C@H]4O)[C@@H]3[C@@]3(CO)O[C@@H]23)ccc1O` [Picroside II], in series [1], the IC50 worked out at 130 nM. Moreover, the “ALR2 inhibition (%)” value in series [2] turned out to be 71%.
As to `CC(/C=C1\SC(=S)N(CC(=O)O)C1=O)=C\c1ccccc1` [Epalrestat, reference compound], the ALR2 inhibition in series [4] was 65%. In addition, the “ALR2 inhibition (%)” value in series [2] is listed as 85%. For the same compound, the “concentration below which no toxicity was shown” value in series [3] is on record as “below 5 μM”.
